Laboratory results from article PMC12257073 (Cancer Research Communications, 2025).
“Also recorded” adds a separate entry of the source.

Assay: Adverse events (treatment-related and all-cause) and dose-limiting toxicities, NCI CTCAE version 4.0
Conditions: for Patients with treatment-related grade 3+ AEs: seven patients
[1] = Group 2, all-cause adverse events, Missing Categories
[2] = Group 2, all-cause adverse events, Skin and subcutaneous tissue disorders
[3] = Group 2, all-cause adverse events, Vascular disorders
[4] = group 1, 37 mg TP-0903 + decitabine
[5] = group 1, TP-0903 37 mg/day + decitabine, n = 15
[6] = group 2, 25 mg TP-0903 + decitabine
[7] = group 2, TP-0903 25 mg/day + decitabine, n = 12
[8] = overall, TP-0903 + decitabine, n = 27

Description: The phase 1b portion of the study used a standard 3 + 3 dose-escalation design with a starting dose level 1 (DL1) of 37 mg oral daily TP-0903 (Supplementary Table S2) based on experience with 50 mg oral daily as a single agent in patients with solid tumors ([25]). Dose-limiting toxicities (DLT) were evaluated to establish the dose brought forward for an expansion cohort (phase 2). Seven patients were enrolled in the phase 1b study, which was completed in January 2021 with the decision to move forward with an expansion cohort of 37 mg oral daily. Across the phase 1b and phase 2 studies, 15 patients were enrolled and started on 37 mg TP-0903 oral daily on days 1 to 21 (group 1). […] One additional patient was enrolled at this time but was inadvertently started on 25 mg TP-0903 oral daily on days 1 to 21. […] In May 2021, an amendment was approved to allow enrollment of a new group 2 at 25mg oral daily on days 1 to 21 of TP-0903 (DL-1) in stage 2 of the phase 2 study.
Clinical response was assessed according to the modified 2017 European LeukemiaNet AML criteria ([26]). The primary endpoint was achievement of CR within six cycles of therapy. Secondary endpoints included toxicity, duration of response, OS, and the proportion of eligible patients who effectively transitioned to allogeneic stem cell transplantation. Exploratory endpoints included pharmacokinetics (PK), correlative genetic, and biochemical data; correlations between morphologic remission, spectral flow cytometry, and mutational remission; and duration of remission or survival. […] Adverse events (AE) were graded according to the NCI Common Terminology Criteria for Adverse Events version 4.0 ([27]).

CN1CCN(Cc2ccc(Nc3ncc(Cl)c(Nc4ccccc4S(=O)(=O)N(C)C)n3)cc2)CC1.O=C(O)C(O)C(O)C(=O)O.O=C(O)C(O)C(O)C(=O)O [TP-0903, 2-(5-chloro-2-(4-((4-methylpiperazin-1-yl)methyl)phenylamino)pyrimidin-4-yl)amino-N,N-dimethylbenzene-1-sulfonamide di-tartrate salt]
Hypotension (intermittent), All [1]: 1 (8.3)
Hypotension (intermittent), Grade 1 2 [1]: 1 (8.3)
Hypotension (intermittent), Grade 3+ [1]: 0 (0)
INR - Increased, All [1]: 0 (0)
INR - Increased, Grade 1 2 [1]: 0 (0)
INR - Increased, Grade 3+ [1]: 0 (0)
Inflammation (bilateral knee), All [1]: 1 (8.3)
Inflammation (bilateral knee), Grade 1 2 [1]: 1 (8.3)
Inflammation (bilateral knee), Grade 3+ [1]: 0 (0)
Itching (intermittent), All [1]: 1 (8.3)
Itching (intermittent), Grade 1 2 [1]: 1 (8.3)
Itching (intermittent), Grade 3+ [1]: 0 (0)
Microvascular ischemic disease, All [1]: 1 (8.3)
Microvascular ischemic disease, Grade 1 2 [1]: 1 (8.3)
Microvascular ischemic disease, Grade 3+ [1]: 0 (0)
Pain (leg), All [1]: 1 (8.3)
Pain (leg), Grade 1 2 [1]: 1 (8.3)
Pain (leg), Grade 3+ [1]: 0 (0)
Retinal Detachment, All [1]: 0 (0)
Retinal Detachment, Grade 1 2 [1]: 0 (0)
Retinal Detachment, Grade 3+ [1]: 0 (0)
Steroid-induced hyperglycemia, All [1]: 1 (8.3)
Steroid-induced hyperglycemia, Grade 1 2 [1]: 1 (8.3)
Steroid-induced hyperglycemia, Grade 3+ [1]: 0 (0)
Symptomatic anemia, All [1]: 1 (8.3)
Symptomatic anemia, Grade 1 2 [1]: 0 (0)
Symptomatic anemia, Grade 3+ [1]: 1 (8.3)
lung fullness, All [1]: 0 (0)
lung fullness, Grade 1 2 [1]: 0 (0)
lung fullness, Grade 3+ [1]: 0 (0)
neuropathy (BLE), All [1]: 1 (8.3)
neuropathy (BLE), Grade 1 2 [1]: 1 (8.3)
neuropathy (BLE), Grade 3+ [1]: 0 (0)
pericarditis (intermittent), All [1]: 1 (8.3)
pericarditis (intermittent), Grade 1 2 [1]: 1 (8.3)
pericarditis (intermittent), Grade 3+ [1]: 0 (0)
Dry skin, All [2]: 0 (0)
Dry skin, Grade 1 2 [2]: 0 (0)
Dry skin, Grade 3+ [2]: 0 (0)
Ecchymosis, All [2]: 4 (33.3)
Ecchymosis, Grade 1 2 [2]: 4 (33.3)
Ecchymosis, Grade 3+ [2]: 0 (0)
Erythema nodosum, All [2]: 1 (8.3)
Erythema nodosum, Grade 1 2 [2]: 1 (8.3)
Erythema nodosum, Grade 3+ [2]: 0 (0)
Erythema, All [2]: 0 (0)
Erythema, Grade 1 2 [2]: 0 (0)
Erythema, Grade 3+ [2]: 0 (0)
Hyperhidrosis, All [2]: 1 (8.3)
Hyperhidrosis, Grade 1 2 [2]: 1 (8.3)
Hyperhidrosis, Grade 3+ [2]: 0 (0)
Nail discolouration, All [2]: 0 (0)
Nail discolouration, Grade 1 2 [2]: 0 (0)
Nail discolouration, Grade 3+ [2]: 0 (0)
Petechiae, All [2]: 3 (25)
Petechiae, Grade 1 2 [2]: 3 (25)
Petechiae, Grade 3+ [2]: 0 (0)
Photosensitivity reaction, All [2]: 0 (0)
Photosensitivity reaction, Grade 1 2 [2]: 0 (0)
Photosensitivity reaction, Grade 3+ [2]: 0 (0)
Pruritus, All [2]: 0 (0)
Pruritus, Grade 1 2 [2]: 0 (0)
Pruritus, Grade 3+ [2]: 0 (0)
Rash papular, All [2]: 1 (8.3)
Rash papular, Grade 1 2 [2]: 1 (8.3)
Rash papular, Grade 3+ [2]: 0 (0)
Rash, All [2]: 1 (8.3)
Rash, Grade 1 2 [2]: 1 (8.3)
Rash, Grade 3+ [2]: 0 (0)
Scab, All [2]: 1 (8.3)
Scab, Grade 1 2 [2]: 1 (8.3)
Scab, Grade 3+ [2]: 0 (0)
Skin disorder, All [2]: 0 (0)
Skin disorder, Grade 1 2 [2]: 0 (0)
Skin disorder, Grade 3+ [2]: 0 (0)
Skin lesion, All [2]: 1 (8.3)
Skin lesion, Grade 1 2 [2]: 1 (8.3)
Skin lesion, Grade 3+ [2]: 0 (0)
Swelling face, All [2]: 1 (8.3)
Swelling face, Grade 1 2 [2]: 1 (8.3)
Swelling face, Grade 3+ [2]: 0 (0)
Hypertension, All [3]: 1 (8.3)
Hypertension, Grade 1 2 [3]: 0 (0)
Hypertension, Grade 3+ [3]: 1 (8.3)
Hypotension, All [3]: 1 (8.3)
Hypotension, Grade 1 2 [3]: 0 (0)
Hypotension, Grade 3+ [3]: 1 (8.3)
Lymphoedema, All [3]: 1 (8.3)
Lymphoedema, Grade 1 2 [3]: 1 (8.3)
Lymphoedema, Grade 3+ [3]: 0 (0)
Peripheral venous disease, All [3]: 1 (8.3)
Peripheral venous disease, Grade 1 2 [3]: 1 (8.3)
Peripheral venous disease, Grade 3+ [3]: 0 (0)
Serious AEs related to TP-0903 (all treated patients, TP-0903 + decitabine): no patients had serious AEs related to TP-0903; also recorded: no serious AEs attributable to TP-0903
Diarrhea, grade 1 to 2 treatment-related AE (any grade) [4]: 33%
Fatigue, grade 3+ treatment-related AE [4]: 6%
Nausea, grade 1 to 2 treatment-related AE (any grade) [4]: 47%
Neutropenia, grade 3+ treatment-related AE [4]: 33%
Stomatitis, grade 3+ treatment-related AE [4]: 6%
Thrombocytopenia, grade 3+ treatment-related AE [4]: 27%
Patients with treatment-related grade 3+ AEs [4]: 47%
Anemia, treatment-related AE grade ≥3 [5]: 2 (13.3) no. (%)
Decreased appetite, treatment-related AE grade ≥3 [5]: 0 (0) no. (%)
Febrile neutropenia, treatment-related AE grade ≥3 [5]: 0 (0) no. (%)
Leukopenia, treatment-related AE grade ≥3 [5]: 3 (20) no. (%)
Lymphocyte count decreased, treatment-related AE grade ≥3 [5]: 0 (0) no. (%)
Neutropenia, treatment-related AE grade ≥3 [5]: 5 (33.3) no. (%)
Pneumonia, treatment-related AE grade ≥3 [5]: 0 (0) no. (%)
Thrombocytopenia, treatment-related AE grade ≥3 [5]: 4 (26.7) no. (%)
Decreased appetite, grade 1 to 2 treatment-related AE (any grade) [6]: 25%
Decreased appetite, grade 3+ treatment-related AE [6]: 8%
Diarrhea, grade 1 to 2 treatment-related AE (any grade) [6]: 25%
Febrile neutropenia, grade 3+ treatment-related AE [6]: 33%
Leukopenia, grade 3+ treatment-related AE [6]: 33%
Lymphocyte count decrease, grade 3+ treatment-related AE [6]: 42%
Nausea, grade 1 to 2 treatment-related AE (any grade) [6]: 42%
Neutropenia, grade 3+ treatment-related AE [6]: 50%
Pneumonia, grade 3+ treatment-related AE [6]: 8%
Thrombocytopenia, grade 3+ treatment-related AE [6]: 25%
Patients with treatment-related grade 3+ AEs [6]: 58%
Anemia, treatment-related AE grade ≥3 [7]: 1 (8.3) no. (%)
Decreased appetite, treatment-related AE grade ≥3 [7]: 1 (8.3) no. (%)
Fatigue, treatment-related AE grade ≥3 [7]: 0 (0) no. (%)
Febrile neutropenia, treatment-related AE grade ≥3 [7]: 4 (33.3) no. (%)
Leukopenia, treatment-related AE grade ≥3 [7]: 4 (33.3) no. (%)
Lymphocyte count decreased, treatment-related AE grade ≥3 [7]: 5 (41.7) no. (%)
Neutropenia, treatment-related AE grade ≥3 [7]: 6 (50) no. (%)
Pneumonia, treatment-related AE grade ≥3 [7]: 1 (8.3) no. (%)
Stomatitis, treatment-related AE grade ≥3 [7]: 0 (0) no. (%)
Thrombocytopenia, treatment-related AE grade ≥3 [7]: 3 (25) no. (%)
Anemia, treatment-related AE grade ≥3 [8]: 3 (11.1) no. (%)
Decreased appetite, treatment-related AE grade ≥3 [8]: 1 (3.7) no. (%)
Fatigue, treatment-related AE grade ≥3 [8]: 1 (3.7) no. (%)
Febrile neutropenia, treatment-related AE grade ≥3 [8]: 4 (14.8) no. (%)
Leukopenia, treatment-related AE grade ≥3 [8]: 7 (25.9) no. (%)
Lymphocyte count decreased, treatment-related AE grade ≥3 [8]: 5 (18.5) no. (%)
Neutropenia, treatment-related AE grade ≥3 [8]: 11 (40.7) no. (%)
Pneumonia, treatment-related AE grade ≥3 [8]: 1 (3.7) no. (%)
Stomatitis, treatment-related AE grade ≥3 [8]: 1 (3.7) no. (%)
Thrombocytopenia, treatment-related AE grade ≥3 [8]: 7 (25.9) no. (%)
Dose-limiting toxicities (DLT) (phase 1b, DL1 37 mg TP-0903 + decitabine, six evaluable patients): No DLTs were observed
